Like-named read-outs stand apart in the source and are kept apart here.
Key:
[1] = tested on: CD8+ CTL clone SKH-13; assay type: cell-based, human
[2] = tested on: HSV-2; assay: Quantitative real-time PCR (TaqMan) of HSV levels in fibroblasts and CTL; assay type: cell-based
Method: Quantitative Real-Time PCR Using TaqMan® Chemistry: CTL were incubated with uninfected or HSV-infected fibroblasts for 4 h, removed by aspiration, and incubated for 5 h at 37° C. In the acyclovir group, fibroblasts were treated with 50 μM acyclovir for 2 h prior to infecting with HSV for 6 h. Removed CTL were then incubated with CD8-conjugated Dynabeads® (Dynal A.S., Oslo, Norway) for 30 m rocking at 4° C. and washed as directed by the manufacturer. DNA was purified from uninfected fibroblasts, HSV-infected fibroblasts, and CD8 enriched CTL using DNeasy® Tissue Kits (Qiagen, Valencia, Calif.). DNA was quantified by spectrophotometry and used as template in TaqMan® real-time PCR reactions with primers and fluorogenic probes specific for the HSV glycoprotein B gene or the cellular beta-globin gene. Reactions were carried out using an ABI 7700 Sequencer (Applied Biosystems, Foster City, Calif.), and the sequences and concentrations of the primers and probes used were as previously described (Liu et al., J. Virol. 75:11178, 2001).
The most sensitive technique available to detect the presence of HSV is real-time, quantitative PCR. Primers and probes against a viral gene (gB) and a cellular gene (beta globin) were used to determine the number of HSV copies per cell in HSV-infected fibroblasts and in inactivated CTL. […]

[3] = tested on: CTL; assay: Mitochondrial potential of CTL by MitoTracker Red CMXRos flow cytometry; assay type: cell-based, human; conditions: 1 μM, 4 h, CTL without fibroblasts
Method: Mitochondrial potential was assessed in untreated CTL, CTL treated with 1 μM staurosporine (Sigma, St. Louis, Mo.) for 4 h, CTL incubated with uninfected fibroblasts (control) for 4 h, and CTL incubated with HSV-infected fibroblasts (inactivated) for 4 h. CTL were then stained using MitoTracker® Red CMXRos as per the manufacturer's instructions (Molecular Probes, Inc., Eugene, Oreg.). Control and inactivated CTL were also stained with antibody against CD95/Fas (clone DX2, Dako, Carpinteria, Calif.) and with the DNA-binding dye 7-amino-actinomycin D (7-AAD, Sigma, St. Louis, Mo.) and analyzed by flow cytometry.

[4] = tested on: HSV-inactivated T cells; assay type: cell-based, human
[5] = tested on: T cells; assay type: cell-based, human
[6] = tested on: CTL; assay: Redirected cell lysis of 51Cr-labeled FcγR+ P815 target cells by anti-CD3-labeled CTL; assay type: cell-based, human; conditions: antibody 1 μg/ml for 15 m; control vs inactivated CTL; 5 h

C[C@@H]1C[C@@H]([C@H](O)CC2CC(=O)NC(=O)C2)C(=O)[C@@H](C)C1 [CHX, cyclohexamide]
Effect on HSV-mediated inactivation of CTL ([1]; CTL (5 h prior) or targets exposed to 10 μg/ml): no effect on HSV-mediated inactivation | Effect on HSV-mediated inactivation of CTL ([1]; fibroblasts treated with 10 μg/ml for 10 h prior to infection): abolished HSV-mediated inactivation

Nc1nc2c(ncn2COCCO)c(=O)[nH]1 [acyclovir]
# HSV Copies/cell ([2]; CTL incubated 4 h on HSV-2-infected fibroblasts treated with 50 μM acyclovir, CD8-bead enriched): 0.16 Copies/cell | HSV copies detected per CTL ([2]; fibroblasts treated with 50 μM acyclovir prior to infection, inactivated CTL): 1 copy of HSV was detected per 6 CTL

C/C=C/[C@H]1O[C@@](O)([C@@H](C)[C@H](O)[C@H](C)[C@H]2OC(=O)/C(OC)=C/C(C)=C/[C@@H](C)[C@@H](O)[C@@H](CC)[C@@H](O)[C@H](C)C/C(C)=C/C=C/[C@@H]2OC)C[C@@H](O)[C@@H]1C [concanamycin]
51Cr release from target cells by SKH-13 CTL clone [1]: prevented ^51Cr release from target cells

CN[C@@H]1C[C@H]2O[C@@](C)([C@@H]1OC)n1c3ccccc3c3c4c(c5c6ccccc6n2c5c31)C(=O)NC4 [staurosporine]
CMXRos signal (mitochondrial membrane potential) in CTL [3]: significant decrease in the CMXRos signal

IL-15: human recombinant IL-15 (Peprotech)
Restoration of lytic function to HSV-inactivated T cells [4]: not to restore lytic function

OKT3: monoclonal antibody raised against CD3 (clone OKT3, Ortho-McNeil)
TNF-α and IFN-γ synthesis by inactivated T cells [5]: failed to synthesize TNF-α and IFN-γ | Lytic granule release via redirected lysis [6]: Control but not inactivated CTL were capable of lytic granule release

B1: IL-7: human recombinant IL-7 (RnDSystems) (protein, UniProt P13232 26-177, looked up)
Interleukin-7: DCDIEGKDGKQYESVLMVSIDQLLDSMKEIGSNCLNNEFNFFKRHICDANKEGMFLFRAARKLRQFLKMNSTGDFDLHLLKVSEGTTILLNCTGQVKGRKPAALGEAQPTKSLEENKSLKEQKKLNDLCFLKRLLQEIKTCWNKILMGTKEH
Restoration of lytic function to HSV-inactivated T cells [4]: not to restore lytic function
